Legend:
[1] = target: Metabotropic glutamate receptor 8 (Rattus norvegicus, UniProt P70579)
[2] = target: Metabotropic glutamate receptor 6 (Rattus norvegicus, UniProt P35349)
Histamine H4 receptor = Histamine H4 receptor (Homo sapiens, UniProt Q9H3N8)
Histamine H1 receptor = Histamine H1 receptor (Homo sapiens, UniProt P35367)
Histamine H2 receptor = Histamine H2 receptor (Homo sapiens, UniProt P25021)
Cannabinoid receptor 1 = Cannabinoid receptor 1 (Rattus norvegicus, UniProt P20272)
[3] = target: Neuronal acetylcholine receptor subunit alpha-4 (Homo sapiens, UniProt P43681)
[4] = target: Neuronal acetylcholine receptor subunit alpha-4 (Rattus norvegicus, UniProt P09483)
[5] = target: Beta-1 adrenergic receptor (Rattus norvegicus, UniProt P18090)
[6] = target: Metabotropic glutamate receptor 5 (Rattus norvegicus, UniProt P31424)
[7] = target: Metabotropic glutamate receptor 4 (Rattus norvegicus, UniProt P31423)
[8] = target: Metabotropic glutamate receptor 2 (Rattus norvegicus) (UniProt P31421)
[9] = target: Voltage-dependent L-type calcium channel subunit alpha-1C (Rattus norvegicus, UniProt P22002)
[10] = target: Neuronal acetylcholine receptor subunit alpha-2 (Homo sapiens, UniProt Q15822)
[11] = target: Neuronal acetylcholine receptor subunit alpha-3 (Homo sapiens, UniProt P32297)
Nischarin = Nischarin (Rattus norvegicus, UniProt Q4G017)
[12] = target: Metabotropic glutamate receptor 1 (Rattus norvegicus, UniProt P23385)

Chain of Metabotropic glutamate receptor 6 (P35349 whole entry): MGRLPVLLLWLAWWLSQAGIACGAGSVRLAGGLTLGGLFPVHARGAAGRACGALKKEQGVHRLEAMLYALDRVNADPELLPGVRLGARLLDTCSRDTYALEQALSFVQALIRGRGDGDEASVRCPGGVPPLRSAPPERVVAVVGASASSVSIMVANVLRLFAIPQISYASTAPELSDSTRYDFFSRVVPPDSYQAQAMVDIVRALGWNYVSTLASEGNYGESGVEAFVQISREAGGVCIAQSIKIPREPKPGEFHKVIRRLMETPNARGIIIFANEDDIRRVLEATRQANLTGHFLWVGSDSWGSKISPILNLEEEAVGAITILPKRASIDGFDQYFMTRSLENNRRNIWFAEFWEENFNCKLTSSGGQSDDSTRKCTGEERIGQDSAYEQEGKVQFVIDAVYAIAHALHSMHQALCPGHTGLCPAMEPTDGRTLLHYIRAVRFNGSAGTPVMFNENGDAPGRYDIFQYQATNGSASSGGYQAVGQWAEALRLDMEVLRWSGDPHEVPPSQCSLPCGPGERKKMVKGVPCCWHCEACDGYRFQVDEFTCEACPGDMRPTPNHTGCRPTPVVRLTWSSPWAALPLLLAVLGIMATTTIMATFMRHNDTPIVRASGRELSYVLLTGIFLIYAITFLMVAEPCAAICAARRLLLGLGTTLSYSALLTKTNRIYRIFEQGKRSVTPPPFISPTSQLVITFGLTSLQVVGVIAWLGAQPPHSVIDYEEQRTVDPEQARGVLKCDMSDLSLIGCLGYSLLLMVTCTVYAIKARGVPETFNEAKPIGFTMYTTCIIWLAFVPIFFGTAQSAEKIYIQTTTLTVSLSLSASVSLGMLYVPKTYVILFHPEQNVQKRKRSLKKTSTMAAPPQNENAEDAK
Chain of Metabotropic glutamate receptor 8 (P70579 whole entry): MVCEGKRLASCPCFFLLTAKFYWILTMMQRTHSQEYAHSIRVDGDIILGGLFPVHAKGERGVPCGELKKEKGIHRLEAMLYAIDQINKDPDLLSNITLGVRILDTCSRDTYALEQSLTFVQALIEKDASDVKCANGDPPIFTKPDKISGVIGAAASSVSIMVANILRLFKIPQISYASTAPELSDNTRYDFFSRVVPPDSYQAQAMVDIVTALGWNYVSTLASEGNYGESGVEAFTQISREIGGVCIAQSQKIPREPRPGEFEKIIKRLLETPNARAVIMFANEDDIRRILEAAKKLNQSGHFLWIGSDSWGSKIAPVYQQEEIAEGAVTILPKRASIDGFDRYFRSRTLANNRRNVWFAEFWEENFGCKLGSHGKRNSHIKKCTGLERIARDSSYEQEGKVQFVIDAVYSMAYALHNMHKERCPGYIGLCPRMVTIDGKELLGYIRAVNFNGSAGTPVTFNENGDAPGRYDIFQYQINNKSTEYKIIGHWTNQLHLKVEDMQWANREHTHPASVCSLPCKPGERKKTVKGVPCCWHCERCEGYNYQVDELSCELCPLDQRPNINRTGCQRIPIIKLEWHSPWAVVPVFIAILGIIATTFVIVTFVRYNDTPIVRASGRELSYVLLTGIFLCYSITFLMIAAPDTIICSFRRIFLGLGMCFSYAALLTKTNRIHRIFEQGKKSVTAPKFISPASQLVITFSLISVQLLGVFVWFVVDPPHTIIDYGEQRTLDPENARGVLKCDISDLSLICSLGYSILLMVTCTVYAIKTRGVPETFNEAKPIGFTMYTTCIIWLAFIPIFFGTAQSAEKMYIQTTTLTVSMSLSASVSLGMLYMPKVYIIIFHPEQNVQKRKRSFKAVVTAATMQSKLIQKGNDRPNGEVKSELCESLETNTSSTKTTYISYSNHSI
Chain of Histamine H1 receptor (P35367 whole entry): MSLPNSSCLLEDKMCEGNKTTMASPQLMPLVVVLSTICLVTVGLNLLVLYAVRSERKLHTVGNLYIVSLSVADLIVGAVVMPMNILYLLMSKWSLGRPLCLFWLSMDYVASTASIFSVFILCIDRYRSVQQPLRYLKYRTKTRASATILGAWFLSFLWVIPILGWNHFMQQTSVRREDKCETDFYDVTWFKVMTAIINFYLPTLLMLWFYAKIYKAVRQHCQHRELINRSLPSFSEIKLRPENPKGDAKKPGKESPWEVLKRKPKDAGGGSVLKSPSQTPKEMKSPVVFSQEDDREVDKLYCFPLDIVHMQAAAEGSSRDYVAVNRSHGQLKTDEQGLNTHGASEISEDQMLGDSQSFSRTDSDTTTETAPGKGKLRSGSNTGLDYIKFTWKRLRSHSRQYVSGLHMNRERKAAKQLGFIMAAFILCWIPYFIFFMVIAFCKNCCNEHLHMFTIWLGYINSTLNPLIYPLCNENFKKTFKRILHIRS
Chain of Neuronal acetylcholine receptor subunit alpha-4 (Rattus norvegicus, UniProt P09483) (P09483 whole entry): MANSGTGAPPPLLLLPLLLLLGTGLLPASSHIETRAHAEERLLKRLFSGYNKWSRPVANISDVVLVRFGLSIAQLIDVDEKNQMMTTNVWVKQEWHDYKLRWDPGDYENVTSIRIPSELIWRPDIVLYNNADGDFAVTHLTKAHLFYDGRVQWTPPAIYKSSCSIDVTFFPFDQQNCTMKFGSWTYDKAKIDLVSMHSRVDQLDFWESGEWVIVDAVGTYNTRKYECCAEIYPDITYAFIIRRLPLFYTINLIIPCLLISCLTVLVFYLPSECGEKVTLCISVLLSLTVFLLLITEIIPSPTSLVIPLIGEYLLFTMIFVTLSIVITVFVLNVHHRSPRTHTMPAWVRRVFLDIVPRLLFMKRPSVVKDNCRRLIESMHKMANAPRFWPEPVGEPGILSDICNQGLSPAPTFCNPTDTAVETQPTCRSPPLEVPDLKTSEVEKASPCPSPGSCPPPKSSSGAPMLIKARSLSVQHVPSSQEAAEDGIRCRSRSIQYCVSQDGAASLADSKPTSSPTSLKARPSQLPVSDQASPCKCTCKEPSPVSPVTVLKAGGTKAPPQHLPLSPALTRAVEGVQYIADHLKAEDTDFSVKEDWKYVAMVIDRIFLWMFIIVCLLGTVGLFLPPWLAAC
Chain of Beta-1 adrenergic receptor (P18090 whole entry): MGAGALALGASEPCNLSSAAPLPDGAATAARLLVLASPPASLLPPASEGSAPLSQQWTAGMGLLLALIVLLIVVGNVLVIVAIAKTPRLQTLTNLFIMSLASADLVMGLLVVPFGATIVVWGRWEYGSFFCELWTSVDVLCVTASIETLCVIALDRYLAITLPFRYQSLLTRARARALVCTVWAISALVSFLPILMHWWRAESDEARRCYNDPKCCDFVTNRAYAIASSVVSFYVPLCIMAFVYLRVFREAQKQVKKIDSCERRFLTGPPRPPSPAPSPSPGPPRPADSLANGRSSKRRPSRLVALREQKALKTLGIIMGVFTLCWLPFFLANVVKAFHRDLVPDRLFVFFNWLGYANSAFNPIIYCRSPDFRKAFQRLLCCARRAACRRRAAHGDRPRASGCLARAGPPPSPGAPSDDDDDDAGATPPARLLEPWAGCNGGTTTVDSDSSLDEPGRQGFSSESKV
Chain of Nischarin (Q4G017 whole entry): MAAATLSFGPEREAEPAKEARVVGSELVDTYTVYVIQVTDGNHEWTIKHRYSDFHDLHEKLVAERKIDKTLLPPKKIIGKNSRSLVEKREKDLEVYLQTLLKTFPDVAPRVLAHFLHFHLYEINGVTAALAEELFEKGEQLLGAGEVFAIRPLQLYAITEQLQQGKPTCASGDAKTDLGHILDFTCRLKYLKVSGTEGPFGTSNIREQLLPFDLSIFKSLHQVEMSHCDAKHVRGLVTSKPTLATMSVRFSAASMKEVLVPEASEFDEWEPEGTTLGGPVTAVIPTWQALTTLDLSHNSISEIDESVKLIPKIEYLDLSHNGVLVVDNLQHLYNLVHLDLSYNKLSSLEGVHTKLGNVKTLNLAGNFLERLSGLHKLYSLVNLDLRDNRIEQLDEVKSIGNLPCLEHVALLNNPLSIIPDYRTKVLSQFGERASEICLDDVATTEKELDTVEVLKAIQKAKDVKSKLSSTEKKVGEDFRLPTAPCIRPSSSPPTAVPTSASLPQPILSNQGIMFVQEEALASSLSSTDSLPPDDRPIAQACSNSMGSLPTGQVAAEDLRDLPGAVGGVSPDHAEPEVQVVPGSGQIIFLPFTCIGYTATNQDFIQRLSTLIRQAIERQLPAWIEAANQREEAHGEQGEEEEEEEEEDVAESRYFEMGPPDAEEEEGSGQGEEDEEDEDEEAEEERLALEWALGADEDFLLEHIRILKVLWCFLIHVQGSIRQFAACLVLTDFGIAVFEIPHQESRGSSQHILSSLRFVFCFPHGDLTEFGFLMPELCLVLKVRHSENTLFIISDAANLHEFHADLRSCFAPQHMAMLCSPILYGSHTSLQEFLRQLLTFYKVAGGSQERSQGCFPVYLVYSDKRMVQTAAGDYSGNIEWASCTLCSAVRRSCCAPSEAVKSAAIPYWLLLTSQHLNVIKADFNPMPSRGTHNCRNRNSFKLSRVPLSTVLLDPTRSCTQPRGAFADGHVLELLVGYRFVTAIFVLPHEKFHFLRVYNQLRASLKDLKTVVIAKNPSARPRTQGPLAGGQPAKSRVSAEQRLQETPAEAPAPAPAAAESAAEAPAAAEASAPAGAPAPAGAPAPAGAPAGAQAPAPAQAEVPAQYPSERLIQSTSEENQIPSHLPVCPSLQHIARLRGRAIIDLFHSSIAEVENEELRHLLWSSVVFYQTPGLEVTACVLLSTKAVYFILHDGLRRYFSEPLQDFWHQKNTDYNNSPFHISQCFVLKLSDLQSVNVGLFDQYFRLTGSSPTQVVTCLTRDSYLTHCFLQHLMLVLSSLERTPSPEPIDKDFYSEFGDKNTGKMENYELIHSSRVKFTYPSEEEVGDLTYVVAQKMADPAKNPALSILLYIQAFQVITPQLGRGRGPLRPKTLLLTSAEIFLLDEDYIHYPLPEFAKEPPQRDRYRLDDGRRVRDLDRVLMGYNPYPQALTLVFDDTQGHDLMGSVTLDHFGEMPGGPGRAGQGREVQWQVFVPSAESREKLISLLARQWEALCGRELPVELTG

Row | SMILES | EC50 [1] [µM] | EC50 [2] [µM] | Ki (Histamine H4 receptor) [µM] | Ki (Histamine H1 receptor) [µM] | Ki (Histamine H2 receptor) [µM] | Ki (Cannabinoid receptor 1) [µM] | Ki [3] [µM] | Ki [4] [µM] | Ki [5] [µM] | EC50 [6] [µM] | EC50 [7] [µM] | EC50 [8] [µM] | Ki [9] [µM] | Ki [10] [µM] | Ki [11] [µM] | Ki (Nischarin) [µM] | EC50 [12] [µM]
1 | N[C@@H](CCP(=O)(O)O)C(=O)O | 1.26 | 0.398 |  |  |  |  |  |  |  |  |  |  |  |  |  |  | 
2 | N[C@@H](CCS(=O)(=O)O)C(=O)O [L-homocysteic acid] | > 10 | 7.94 | > 10 | > 10 | > 10 | > 10 | > 10 | > 10 | > 10 | 6.31 | > 10 | > 10 | > 10 | > 10 | > 10 | > 10 | > 10

— BindingDB's records for doi:10.1124/jpet.102.047092 (Case Western Reserve University, 2003)
